Experimental data as given in patent US20240383852A1, “ANTI-VIRAL COMPOUNDS” (INFEX Therapeutics Limited, priority 2021, published 2024).
Counter-ions that a name gives are not always drawn. Like-named read-outs stand apart in the source and are kept apart here.

What was measured:
SARS-CoV-2 PLpro = biological target: T1, SARS-CoV-2 PLpro (Severe acute respiratory syndrome coronavirus 2, UniProt P0DTD1); test: biochemical
T1 construct: containing 60 nM papain-like protease

SARS-CoV-2 = test: Anti-viral potency in VERO E6 cells (cytopathic viral activity, crystal violet); type: cell-based; conditions: Severe acute respiratory syndrome coronavirus 2, Vero C1008, 48 h, read-out: SARS-COV-2 EC50 (μM)
[1] = system: human Hep G2 cells (ATCC HB-8065); test: Cytotoxicity in Hep G2 cells (CellTiter-Glo); type: cell-based
[2] = 60 nM papain-like protease, 50 μM Z-RLRGG-AMC, pH 7.5, 37° C., read-out: SARS-CoV-2 PLpro IC50
[3] = Hep G2 cells, 100 μM test article, 24-hour exposure

Compound | IC50 (SARS-CoV-2 PLpro; [2]) [µM] | EC50 (SARS-CoV-2) [µM] | % Cell Viability [1, 3] [%] | IC50 (SARS-CoV-2 PLpro) [µM] | % Cell Viability ([1]; human, 24 h, 100 μM) [%]
COc1ccc([C@@H](C)NC(=O)c2cc(N3CC4CN(C)CC4C3)ccc2C)cc1OC (stereo partly drawn) [Example 9, N-[(1R)-1-(3,4-Dimethoxyphenyl)ethyl]-2-methyl-5-(2-methyl-1,3,3a,4,6,6a-hexahydropyrrolo[3,4-c]pyrrol-5-yl)benzamide] | < 5 | < 15 | 96.5 | – | –
COc1ccc([C@@H](C)NC(=O)c2cc(N3C[C@H]4CC[C@@H](C3)N4C)ccc2C)cc1OC [Example 11, N-[(1R)-1-(3,4-Dimethoxyphenyl)ethyl]-2-methyl-5-[(1R,5S)-8-methyl-3,8-diazabicyclo[3.2.1]octan-3-yl]benzamide] | – | < 5 | – | < 2 | 95.6
Cc1ccc(N2CCN(C)CC2)cc1C(=O)N[C@H](C)c1cccc(-c2cn(C)nc2C)c1 [Example 61, N-[(1R)-1-[3-(1,3-Dimethylpyrazol-4-yl)phenyl]ethyl]-2-methyl-5-(4-methylpiperazin-1-yl)benzamide] | < 2 | < 5 | 69.2 | – | –
CCn1cc(-c2cccc([C@@H](C)NC(=O)c3cc(N4CCN(C)CC4)ccc3C)c2)cn1 [Example 64, N-[(1R)-1-[3-(1-Ethylpyrazol-4-yl)phenyl]ethyl]-2-methyl-5-(4-methylpiperazin-1-yl)benzamide] | < 2 | < 5 | 78.6 | – | –
Cc1ccc(N2CCNCC2)cc1C(=O)N[C@H](C)c1cccc(-c2cnn(C)c2)c1 [Example 72, 2-Methyl-N-[(1R)-1-[3-(1-methylpyrazol-4-yl)phenyl]ethyl]-5-piperazin-1-yl-benzamide] | < 2 | < 5 | 79.0 | – | –
Cc1ccc(N2CCN(C)CC2)cc1C(=O)N[C@H](C)c1cccc(-c2cc(C(=O)N(C)C)n(C)c2)c1 [Example 102, N,N,1-Trimethyl-4-[3-[(1R)-1-[[2-methyl-5-(4-methylpiperazin-1-yl)benzoyl]amino]ethyl]phenyl]pyrrole-2-carboxamide] | < 2 | < 5 | 75.9 | – | –
COc1ccc([C@@H](C)NC(=O)c2cc(N3CCN(C)CC3)ccc2C)cc1-c1cnn(C)c1 [Example 205, N-[(1R)-1-[4-Methoxy-3-(1-methylpyrazol-4-yl)phenyl]ethyl]-2-methyl-5-(4-methylpiperazin-1-yl)benzamide] | < 2 | < 5 | 105.8 | – | –
COc1ccc([C@@H](C)NC(=O)c2cc(N3CCN(C)CC3)ccc2C)cc1-c1cn(C)nc1C [Example 212, N-[(1R)-1-[3-(1,3-Dimethylpyrazol-4-yl)-4-methoxy-phenyl]ethyl]-2-methyl-5-(4-methylpiperazin-1-yl)benzamide] | < 2 | < 5 | 96.8 | – | –
COc1cc(OC)c([C@@H](C)NC(=O)c2cc(N3CCN(C)CC3)ccc2C)cc1-c1cnn(C)c1 [Example 215, N-[(1R)-1-[2,4-Dimethoxy-5-(1-methylpyrazol-4-yl)phenyl]ethyl]-2-methyl-5-(4-methylpiperazin-1-yl)benzamide] | < 2 | < 5 | 80.1 | – | –
Cc1ccc(N2CCN(C)CC2)cc1C(=O)N[C@H](C)c1ccc(F)c(-c2cnn(C)c2)c1 [Example 217, N-[(1R)-1-[4-Fluoro-3-(1-methylpyrazol-4-yl)phenyl]ethyl]-2-methyl-5-(4-methylpiperazin-1-yl)benzamide] | < 2 | < 5 | 61.7 | – | –
COc1cc(-c2cnn(C)c2)cc([C@@H](C)NC(=O)c2cc(N3CCN(C)CC3)ccc2C)c1 [Example 219, N-[(1R)-1-[3-Methoxy-5-(1-methylpyrazol-4-yl)phenyl]ethyl]-2-methyl-5-(4-methylpiperazin-1-yl)benzamide] | < 2 | < 5 | – | – | –
CCn1cc(-c2cc(OC)cc([C@@H](C)NC(=O)c3cc(N4CCN(C)CC4)ccc3C)c2)cn1 [Example 220, N-[(1R)-1-[3-(1-Ethylpyrazol-4-yl)-5-methoxy-phenyl]ethyl]-2-methyl-5-(4-methylpiperazin-1-yl)benzamide] | < 2 | < 15 | 80.7 | – | –
COc1cc(-c2cnn(C3CC3)c2)cc([C@@H](C)NC(=O)c2cc(N3CCN(C)CC3)ccc2C)c1 [Example 221, N-[(1R)-1-[3-(1-Cyclopropylpyrazol-4-yl)-5-methoxy-phenyl]ethyl]-2-methyl-5-(4-methylpiperazin-1-yl)benzamide] | < 2 | < 5 | 74.9 | – | –
COc1ccc([C@@H](C)NC(=O)c2cc(N3C[C@H]4C[C@@H]3CN4C)ccc2C)cc1-c1cnn(C)c1 [Example 227, N-[(1R)-1-[4-Methoxy-3-(1-methylpyrazol-4-yl)phenyl]ethyl]-2-methyl-5-[(1R,4R)-5-methyl-2,5-diazabicyclo[2.2.1]heptan-2-yl]benzamide] | < 2 | < 5 | 89.9 | – | –
COc1cc(-c2cnn(C)c2)cc([C@@H](C)NC(=O)c2cc(C3CCNCC3)ccc2C)c1 [Example 303, N-[(1R)-1-[3-Methoxy-5-(1-methylpyrazol-4-yl)phenyl]ethyl]-2-methyl-5-(4-piperidyl)benzamide] | < 2 | – | 73.2 | – | –
Cc1ccc(N2CCN(C)CC2)cc1C(=O)N[C@H](C)c1cccc(C(=O)NC[C@@H](O)CO)c1 [Example 308, N-[(1R)-1-[3-[[(2R)-2,3-Dihydroxypropyl]carbamoyl]phenyl]ethyl]-2-methyl-5-(4-methylpiperazin-1-yl)benzamide hydrochloride salt] | < 10 | – | 126.8 | – | –
Cc1ccc(N2CCN(C)CC2)cc1C(=O)N[C@H](C)c1cccc(C(=O)NC[C@H](O)CO)c1 [Example 309, N-[(1R)-1-[3-[[(2S)-2,3-Dihydroxypropyl]carbamoyl]phenyl]ethyl]-2-methyl-5-(4-methylpiperazin-1-yl)benzamide] | < 5 | – | 118.2 | – | –
Cc1ccc(N2CCN(C)CC2)cc1C(=O)N[C@H](C)c1cccc(C(=O)NCC(N)=O)c1 [Example 310, N-[(1R)-1-[3-[(2-Amino-2-oxo-ethyl)carbamoyl]phenyl]ethyl]-2-methyl-5-(4-methylpiperazin-1-yl)benzamide hydrochloride salt] | < 5 | – | 124.4 | – | –
Cc1ccc(N2CCN(C)CC2)cc1C(=O)N[C@H](C)c1cccc(C(=O)N(C)C)c1 [Example 311, N-[(1R)-1-[3-(Dimethylcarbamoyl)phenyl]ethyl]-2-methyl-5-(4-methylpiperazin-1-yl)benzamide] | < 20 | – | 130.7 | – | –
CNC(=O)c1cccc([C@@H](C)NC(=O)c2cc(N3CCN(C)CC3)ccc2C)c1 [Example 312, 2-Methyl-N-[(1R)-1-[3-(methylcarbamoyl)phenyl]ethyl]-5-(4-methylpiperazin-1-yl)benzamide] | < 10 | – | 78.3 | – | –
Cc1ccc(N2CCN(C)CC2)cc1C(=O)N[C@H](C)c1cccc(C#CCO)c1 [Example 315, N-[(1R)-1-[3-(3-Hydroxyprop-1-ynyl)phenyl]ethyl]-2-methyl-5-(4-methylpiperazin-1-yl)benzamide] | < 5 | – | 122.7 | – | –
